# According to patent publication US6197788A, “(-)-mefloquine to block puringergic receptors and to treat movement or neurodegenerative disorders” (Vernalis Research Limited, priority 1997, dated 2001):
# pKi: −log10 of the molar value. Like-named read-outs stand apart in the source and are kept apart here.
# What was measured:
# [1] = test system: mouse striatal and frontal cortex neurochemistry; conditions: for dopamine or 5-HT neurochemistry and transmitter metabolites: (+)- versus (-)-enantiomer
# [2] = target: bovine striatal adenosine receptors; experiment: Displacement of [3H]-NECA (non-selective P1 ligand) binding to striatal membranes
# [3] = human, in vivo; cited from earlier work
# [4] = test system: haloperidol-induced catalepsy; experiment: Haloperidol-induced catalepsy in the rat; conditions: 0.1-10 mg/kg p.o. 6 h prior to testing; haloperidol 0.2 mg/kg i.p.
# Protocol: Evaluation of Potential Anti-Parkinsonian Activity in vivo Haloperidol-induced Catalepsy in the Rat
# This method assessed the ability of an animal to respond to an externally imposed posture after receiving the neuroleptic dopamine D2 antagonist haloperidol.
# Haloperidol (0.2 mg/kg) was obtained in injectable form and diluted to a final concentration using physiological saline. 3,7-Dimethyl-1-propargylxanthine(DMPX) (0, 3 mg/kg) was dissolved in saline. All drugs were administered in a volume of 2 ml/kg.
# The test procedure was as follows:
# Step I The rat was taken out of the home cage and placed on a table.
# Step II The front paws of the rat were placed alternately on a 3 cm high wooden block.
# Step III The front paws of the rat were placed alternately on a 9 cm high wooden block. […] Thus for any animal the highest score obtainable was 3.5 (cut-off score) reflecting total catalepsy.
# Data from the experiment were analysed using Kruskal-Wallis ANOVA followed by Mann-Whitney U test when appropriate, and are expressed as means +/- standard error of the mean *p<0.05 versus vehicle control.
# [5] = target: human recombinant (HEK-293) adenosine A2A receptor; conditions: read-out: Ki adenosine A2A, cited from earlier work
# [6] = target: human recombinant (HEK-293) adenosine A3 receptor; conditions: read-out: Ki adenosine A3; cited from earlier work
# [7] = test system: catalepsy; conditions: cited from earlier work
# [8] = target: adenosine A1 receptor; conditions: read-out: Ki adenosine A1, cited from earlier work
# [9] = test system: haloperidol-induced catalepsy; conditions: literature; cited from earlier work
# [10] = test system: Parkinson's disease; conditions: 150 mg/day slow release oral, up to 12 weeks, cited from earlier work
# [11] = 150 mg/day slow release oral, after one week; 10080 min; cited from earlier work
smiles,measurement,setting,value
"O[C@H](c1cc(C(F)(F)F)nc2c(C(F)(F)F)cccc12)[C@@H]1CCCCN1 [(+) enantiomer, (+)-(11R,2'S)-α-2-piperidinyl-2,8-bis(trifluoromethyl)-4-quinolinemethanol]",frontal cortex acetylcholine,"[1]; 100 mg/kg p.o., 24 h",unaffected
same,dopamine or 5-HT neurochemistry and transmitter metabolites,"[1]; 100 mg/kg p.o., 24 h",No significant difference
same,pKi,[2],4.42
"O[C@@H](c1cc(C(F)(F)F)nc2c(C(F)(F)F)cccc12)[C@H]1CCCCN1 [(-) enantiomer, (-)-(11S,2'R)-α-2-piperidinyl-2,8-bis(trifluoromethyl)-4-quinolinemethanol]",half life,[3],14.4 days
same,blocking of haloperidol-induced catalepsy,[4],capable of blocking haloperidol-induced catalepsy
same,frontal cortex acetylcholine,"[1]; 100 mg/kg p.o., 24 h",unaffected
same,"striatal acetylcholine content, (-)- versus (+)-enantiomer","[1]; 100 mg/kg p.o., 24 h",significantly higher
same,"striatal acetylcholine content, post-hoc Duncan's test between enantiomers","[1]; 100 mg/kg p.o., 24 h",between the (+)-enantiomer and the (-)-enantiomer (p<0.01)
same,"striatal acetylcholine content, post-hoc Duncan's test versus vehicle","[1]; 100 mg/kg p.o., 24 h",significant difference between vehicle and the (-)-enantiomer (p<0.05)
same,dopamine or 5-HT neurochemistry and transmitter metabolites,"[1]; 100 mg/kg p.o., 24 h",No significant difference
same,acetylcholine release in striatum (suggested by FIG. 6),[1]; inferred from tissue acetylcholine content,inhibits acetylcholine release in striatum
same,pKi,[2],7.08
OC[C@H]1O[C@@H](n2cnc3c(NC4CCCCC4)ncnc32)[C@H](O)[C@@H]1O [CHA],pKi,[5],6.29
same,pKi,[6],5.11
"CCCn1c(=O)c2c(nc(/C=C/c3ccc(OC)c(OC)c3)n2C)n(CCC)c1=O [KF17837, (E)-8-(3,4-dimethoxystyryl)-1,3-dipropyl-7-methylxanthine]",anticataleptic effects of a subthreshold dose of L-DOPA plus benserazide,[7]; combination,potentiated
same,catalepsy induced by haloperidol and reserpine,[7]; in vivo,reduced
same,cataleptic responses induced by intracerebroventricular CGS 21680,[7]; oral administration,significantly ameliorated
same,pKi,[8]; comparative literature data,6.41
same,pKi,[5]; comparative literature data,8.10
CCn1c(=O)c2c(nc(/C=C/c3ccc(OC)c(OC)c3)n2C)n(CC)c1=O [KW-6002],pKi,[8],6.24
same,pKi,[5],7.89
N[C@@H](Cc1ccc(O)c(O)c1)C(=O)O [L-DOPA],blocking of haloperidol-induced catalepsy,[9],block haloperidol-induced catalepsy
"CNC(=O)[C@H]1O[C@@H](n2cnc3c(N)ncnc32)[C@H](O)[C@@H]1O [MECA, 5'-N-methylcarboxamidoadenosine]",pKi,[2],7.24
"Cn1c(=O)c2[nH]cnc2n(C)c1=O [THEOPHYLLINE, theophylline]",mean objective disability scores,[10]; 15 patients,significant improvements
same,patients reporting moderate or marked subjective improvement,[10]; of 15 patients,11
same,serum theophylline levels,[11],4.44 mg/L
